We go through 21 compounds from patent US8470810B2, “Heterocyclic compounds suitable for treating disorders that respond to modulation of the dopamine D3 receptor” (Abbott GmbH & Co. KG, priority 2004, dated 2013).

The target of assay [1] is T1, human dopamine D2L receptors (long isoform) (Homo sapiens, UniProt P14416).
T1 construct: expressed in transfected cells
As to the kind of experiment: Dopamine D2L receptor binding, displacement of [125I] iodospiperone. Particulars: membranes of HEK-293 cells stably expressing human D2L; 0.01 nM [125I] iodospiperone; 25° C., 60 minutes; read-out: Ki(D2)*. The procedure: (§1) The substance to be tested was either dissolved in methanol/Chremophor® (BASFAG) or in dimethyl sulfoxide and then diluted with water to the desired concentration.
(§2) Each assay mixture was run in triplicate.
The incubation buffer contained 50 mM tris, 120 mM NaCl, 5 mM KCl, 2 mM CaCl2, 2 mM MgCl2 and 0.1% bovine serum albumin. The buffer was adjusted to pH 7.4 with HCl.
(§3) After having been incubated at 25° C. for 60 minutes, the assay mixtures were filtered through a Whatman GF/B glass fiber filter under vacuum using a cell collecting device. The filters were transferred to scintillation viols using a filter transfer system. After 4 ml of Ultima Gold® (Packard) have been added, the samples were shaken for one hour and the radioactivity was then counted in a Beta-Counter (Packard, Tricarb 2000 or 2200CA). The cpm values were converted into dpm using a standard quench series and the program belonging to the instrument.
(§4) The inhibition curves were analyzed by means of iterative nonlinear regression analysis using the Statistical Analysis System (SAS) which is similar to the “LIGAND” program described by Munson and Rodbard.
(§5) The results of the receptro binding studies are expressed as receptor binding constants Ki(D2) and Ki(D3), respectively, as herein before described, and given in table 6.

Assay [2] addresses T2, human dopamine D3 receptors (Homo sapiens, UniProt P35462).
T2 construct: expressed in transfected cells
As to the kind of experiment: Dopamine D3 receptor binding, displacement of [125I]-iodosulpride. Particulars: for Ki: membranes of HEK-293 cells stably expressing human D3, 0.1 nM [125I]-iodosulpride, 25° C., 60 minutes; for Ki(D2)*/Ki(D3)*: selectivity ratio of the receptor binding constants D2 over D3. On the procedure: as §1, §2
The incubation buffer contained 50 mM tris, 120 mM NaCl, 5 mM KCl, 2 mM CaCl2, 2 mM MgCl2 and 0.1% bovine serum albumin, 10 μM quinolone and 0.1% ascorbic acid (prepared fresh daily). The buffer was adjusted to pH 7.4 with HCl.
as §3, §4, §5

T1 sequence (P14416 whole entry, canonical isoform): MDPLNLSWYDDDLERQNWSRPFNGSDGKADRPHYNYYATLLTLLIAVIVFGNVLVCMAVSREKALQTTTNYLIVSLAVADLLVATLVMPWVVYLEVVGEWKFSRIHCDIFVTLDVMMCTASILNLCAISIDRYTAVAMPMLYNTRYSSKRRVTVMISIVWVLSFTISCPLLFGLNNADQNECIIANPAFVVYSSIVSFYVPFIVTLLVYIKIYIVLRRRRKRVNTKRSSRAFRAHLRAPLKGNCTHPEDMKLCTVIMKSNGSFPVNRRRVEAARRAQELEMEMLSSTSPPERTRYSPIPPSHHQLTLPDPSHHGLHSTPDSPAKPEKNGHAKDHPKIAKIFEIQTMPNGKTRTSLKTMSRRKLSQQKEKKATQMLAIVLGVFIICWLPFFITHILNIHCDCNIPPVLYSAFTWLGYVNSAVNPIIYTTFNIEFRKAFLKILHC
T2 sequence (P35462 whole entry): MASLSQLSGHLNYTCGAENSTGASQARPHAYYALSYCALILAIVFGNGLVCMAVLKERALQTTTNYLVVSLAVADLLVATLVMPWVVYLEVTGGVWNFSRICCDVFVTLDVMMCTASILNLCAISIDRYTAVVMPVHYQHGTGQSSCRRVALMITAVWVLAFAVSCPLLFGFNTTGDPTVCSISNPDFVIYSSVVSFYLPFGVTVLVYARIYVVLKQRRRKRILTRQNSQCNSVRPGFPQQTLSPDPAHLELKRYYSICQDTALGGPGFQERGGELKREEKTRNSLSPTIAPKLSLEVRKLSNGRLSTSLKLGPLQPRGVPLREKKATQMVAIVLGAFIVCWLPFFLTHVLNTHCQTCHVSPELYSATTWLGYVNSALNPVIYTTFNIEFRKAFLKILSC

Take `CCCN1CCC(c2ccc(NS(=O)(=O)c3ccc(C(C)C)cc3)cn2)C1` (single isomer, unassigned; (-)) [Example 131, (−)-N-[6-(1-Propyl-pyrrolidin-3-yl)-pyridin-3-yl]-4-isopropyl-benzene-sulfonamide]: the inhibition constant (Ki) in assay [1] was 430 nM. Further, in assay [2], the inhibition constant Ki turned out to be 5.8 nM and the “Ki(D2)*/Ki(D3)*” value stood at 74.
The corresponding values for `CCCN1CC[C@@H](c2ccc(NS(=O)(=O)c3ccc(C(C)C)cc3)cc2)C1.Cl` [Example 1, 4-Isopropyl-N-[4-((S)-1-propyl-pyrrolidin-3-yl)-phenyl]-benzenesulfonamide hydrochloride] are 7.6 nM, 0.09 nM and 89.
The corresponding values for `CCCN1CC[C@@H](c2ccc(NS(=O)(=O)c3ccc(C(C)(C)CC)cc3)cc2)C1.Cl` [Example 2, 4-(1,1-Dimethyl-propyl)-N-[4-((S)-1-propyl-pyrrolidin-3-yl)-phenyl]-benzenesulfonamide hydrochloride] are 2.3 nM, 0.24 nM and 9.
The corresponding values for `C=CCN1CC[C@@H](c2ccc(NS(=O)(=O)c3ccc(C(C)C)cc3)cc2)C1.Cl` [Example 3, 4-(Isopropyl)-N-[4-((S)-1-allyl-pyrrolidin-3-yl)-phenyl]-benzenesulfonamide hydrochloride] are 13.8 nM, 0.17 nM and 91.
Take `C=CCN1CC[C@H](c2ccc(NS(=O)(=O)c3ccc(C(C)C)cc3)cc2)C1.Cl` [Example 4, 4-(Isopropyl)-N-[4-((R)-1-allyl-pyrrolidin-3-yl)-phenyl]-benzenesulfonamide hydrochloride]: the Ki in assay [1] was 403 nM. Further, in assay [2], the inhibitory constant (Ki) is 3.16 nM and the “Ki(D2)*/Ki(D3)*” value came out at 127.
For `CCCN1CC[C@H](c2ccc(NS(=O)(=O)c3ccc(C(C)C)cc3)cc2)C1.Cl` [Example 5, 4-(Isopropyl)-N-[4-((R)-1-propyl-pyrrolidin-3-yl)-phenyl]benzenesulfonamide hydrochloride] the same measures were 267 nM, 2.9 nM and 93.
For `CCCN1CC[C@@H](c2ccc(NS(=O)(=O)c3ccc(CC)cc3)cc2)C1.Cl` [Example 6, 4-Ethyl-N-[4-((S)-1-propyl-pyrrolidin-3-yl)-phenyl]-benzenesulfonamide hydrochloride] the same measures were 20.1 nM, 0.45 nM and 45.
The corresponding values for `CCCN1CC[C@@H](c2ccc(NS(=O)(=O)c3ccc(OC(F)(F)F)cc3)cc2)C1.Cl` [Example 7, 4-Trifluoromethoxy-N-[4-((S)-1-propyl-pyrrolidin-3-yl)-phenyl]-benzenesulfonamide hydrochloride] are 212 nM, 3.5 nM and 61.
With `CCCN1CC[C@@H](c2ccc(NS(=O)(=O)c3ccc(C(F)(F)F)cc3)cc2)C1.Cl` [Example 8, 4-Trifluoromethyl-N-[4-((S)-1-propyl-pyrrolidin-3-yl)-phenyl]-benzenesulfonamide hydrochloride], the inhibitory constant (Ki) in assay [1] came to 235 nM. In assay [2], the Ki turned out to be 4.1 nM and the “Ki(D2)*/Ki(D3)*” value is 57.
As to `CCCN1CC[C@@H](c2ccc(NS(=O)(=O)c3ccc(OC(F)F)cc3)cc2)C1.Cl` [Example 9, 4-Difluoromethoxy-N-[4-((S)-1-propyl-pyrrolidin-3-yl)-phenyl]-benzenesulfonamide hydrochloride], in assay [1], the Ki was 129 nM. Further, in assay [2], the inhibitory constant (Ki) stood at 2.6 nM and the “Ki(D2)*/Ki(D3)*” value worked out at 49.
The corresponding values for `CCCN1CC[C@@H](c2ccc(NS(=O)(=O)c3ccc(C)cc3)cc2)C1.Cl` [Example 10, 4-Methyl-N-[4-((S)-1-propyl-pyrrolidin-3-yl)-phenyl]-benzenesulfonamide hydrochloride] are 111 nM, 1.9 nM and 60.
For `CCCN1CC[C@@H](c2ccc(NS(=O)(=O)c3ccc(OC)cc3)cc2)C1` [Example 12, 4-Methoxy-N-[4-((S)-1-propyl-pyrrolidin-3-yl)-phenyl]-benzenesulfonamide], in assay [1], the Ki was found to be 131 nM. In assay [2], the Ki is 3 nM and the “Ki(D2)*/Ki(D3)*” value is given as 43.
For `CCCN1CC[C@@H](c2ccc(NS(=O)(=O)c3ccc(Cl)cc3)cc2)C1` [Example 13, 4-Chloro-N-[4-((S)-1-propyl-pyrrolidin-3-yl)-phenyl]-benzenesulfonamide] the same measures were 168 nM, 3.1 nM and 54.
Regarding `CCCN1CC[C@@H](c2ccc(NS(=O)(=O)c3ccc4c(c3)CCO4)cc2)C1` [Example 14, 2,3-Dihydro-benzofuran-5-sulfonic acid [4-((S)-1-propyl-pyrrolidin-3-yl)-phenyl]-amide], in assay [1], the inhibition constant Ki stood at 123 nM. Also, in assay [2], affinity was put at a Ki of 3.4 nM and the “Ki(D2)*/Ki(D3)*” value was determined as 37.
The corresponding values for `CCCN1CC[C@@H](c2ccc(NS(=O)(=O)c3ccc(Br)c(F)c3)cc2)C1` [Example 15, 4-Bromo-3-fluoro-N-[4-((S)-1-propyl-pyrrolidin-3-yl)-phenyl]-benzenesulfonamide] are 74 nM, 1.9 nM and 39.
The corresponding values for `CCCN1CC[C@@H](c2ccccc2NS(=O)(=O)c2ccc(Br)c(F)c2)C1` [Example 16, 4-Bromo-3-fluoro-N-[2-((S)-1-propyl-pyrrolidin-3-yl)-phenyl]-benzenesulfonamide] are 393 nM, 12.6 nM and 31.
For the compound `CCCN1CC(c2ccc(NS(=O)(=O)c3ccc(CCC(F)(F)F)cc3)cc2)C1` [Example 61, N-[4-(1-Propyl-azetidin-3-yl)-phenyl]-4-(3,3,3-trifluoro-propyl)-benzenesulfonamide], the Ki in assay [2] turned out to be 21.3 nM.
Take `CCCN1CCC(c2ccc(NS(=O)(=O)c3ccc(C(C)C)cc3)c(F)c2)C1.Cl` (stereo not drawn) [Example 134, N-[2-Fluoro-4-(1-propyl-pyrrolidin-3-yl)-phenyl]-4-isopropyl-benzenesulfonamide, hydrochloride]: in assay [2], the affinity, expressed as Ki, was 0.76 nM and the “Ki(D2)*/Ki(D3)*” value was found to be 13.
The corresponding values for `CC(=O)O.COc1cc(C2CCNC2)ccc1NS(=O)(=O)c1ccc(C(C)C)cc1` (stereo not drawn) [Example 135, 4-Isopropyl-N-(2-methoxy-4-pyrrolidin-3-yl-phenyl)-benzenesulfonamide, acetate] are 0.85 nM and 17.
The corresponding values for `CCCN1CCC(c2ccc(NS(=O)(=O)c3ccc(C(C)C)cc3)c(OC)c2)C1.Cl` (stereo not drawn) [Example 136, 4-Isopropyl-N-[2-methoxy-4-(1-propyl-pyrrolidin-3-yl)-phenyl]-benzenesulfonamide, hydrochloride] are 0.27 nM and 6.
For `C=CCN1CCC(c2ccc(NS(=O)(=O)c3ccc(C(C)C)cc3)c(OC)c2)C1.Cl` (stereo not drawn) [Example 137, N-[4-(1-Allyl-pyrrolidin-3-yl)-2-methoxy-phenyl]-4-isopropyl-benzenesulfonamide, hydrochloride] the same measures were 0.36 nM and 12.
